Experimental data: patent US7943774B2 (priority 2008, dated 2011)
Like-named read-outs stand apart in the source and are kept apart here.

Legend:
log P (pH2.3) = type: physicochemical; conditions: for chromatographic logP: reversed-phase HPLC column (C18)
Phytophthora infestans = assay: whole plant or invertebrate; type: in vivo; conditions: in Solanum lycopersicum, 168 h, read-out: efficacy
Plasmopara viticola = assay: Plasmopara test (grapevine)/protective; type: in vivo; conditions: 144 h, active compound concentration of 100 ppm, young grapevine plants sprayed, then inoculated, evaluation 6 days after inoculation, 0% = control, 100% = no infection, read-out: efficacy
Procedure: Plasmopara Test (Grapevine)/Protective
After the spray coating has dried on, the plants are inoculated with an aqueous spore suspension of Plasmopara viticola and then remain in an incubation cabin at about 20° C. and 100% relative atmospheric humidity for 1 day. The plants are then placed in a greenhouse at about 21° C. and an atmospheric humidity of about 90% for 4 days. The plants are then moistened and placed in an incubation cabin for 1 day.
Evaluation is carried out 6 days after the inoculation.

[1] = method [b]: LC-MS, acidic range, pH 2.7, 0.1% aqueous formic acid and acetonitrile
[2] = method [b]: LC-MS, acidic range, pH 2.7, 0.1% aqueous formic acid and acetonitrile, HPLC on reversed-phase C 18
[3] = method [c]: LC-MS, neutral range, pH 7.8, 0.001 molar aqueous ammonium bicarbonate solution and acetonitrile, HPLC on reversed-phase C 18

Row | Compound | chromatographic logP (log P (pH2.3); [1]) | pest or weed control at 500 ppm (Phytophthora infestans) | pest or weed control at 100 ppm (Plasmopara viticola) | log p (log P (pH2.3); [2]) | other results
1 | Cc1cc(C(F)(F)F)nn1CC(=O)N1CCC(c2nc(/C=C\c3cccc4ccccc34)cs2)CC1 [Example I-2, 2-[5-Methyl-3-(trifluoromethyl)-1H-pyrazol-1-yl]-1-(4-{4-[(Z)-2-(naphthalen-1-yl)ethenyl]-1,3-thiazol-2-yl}piperidin-1-yl)ethanone] | 4.52 | ≥ 70% |  |  | 
2 | Cc1cc(C(F)(F)F)nn1CC(=O)N1CCC(c2nc(/C=C\CC(C)c3ccccc3)cs2)CC1 (centres unmarked) [Example I-3, 2-[5-Methyl-3-(trifluoromethyl)-1H-pyrazol-1-yl]-1-(4-{4-[(1Z)-4-phenylpent-1-en-1-yl]-1,3-thiazol-2-yl}piperidin-1-yl)ethanone] | 4.84 | ≥ 70% |  |  | 
3 | Cc1cc(C(F)(F)F)nn1CC(=O)N1CCC(c2nc(/C=C/c3cccc4ccccc34)cs2)CC1 [Example I-27, 2-[5-Methyl-3-(trifluoromethyl)-1H-pyrazol-1-yl]-1-(4-{4-[(E)-2-(naphthalen-1-yl)ethenyl]-1,3-thiazol-2-yl}piperidin-1-yl)ethanone] | 4.63 | ≥ 70% |  |  | 
4 | Cc1cc(C(F)(F)F)nn1CC(=O)N1CCC(c2nc(C#Cc3cccc4ccccc34)cs2)CC1 [Example I-50, 2-[5-Methyl-3-(trifluoromethyl)-1H-pyrazol-1-yl]-1-{4-[4-(naphthalen-1-ylethynyl)-1,3-thiazol-2-yl]piperidin-1-yl}ethanone] | 4.5 | ≥ 70% | ≥ 70% |  | chromatographic logP (log P (pH2.3); method [c]: LC-MS, neutral range, pH 7.8, 0.001 molar aqueous ammonium bicarbonate and acetonitrile): 4.66
5 | Cc1cc(C(F)(F)F)nn1CC(=O)N1CCC(c2nc(C#Cc3cccnc3)cs2)CC1 [Example I-51, 2-[5-Methyl-3-(trifluoromethyl)-1H-pyrazol-1-yl]-1-{4-[4-(pyridin-3-ylethynyl)-1,3-thiazol-2-yl]piperidin-1-yl}ethanone] | 2.68 | ≥ 70% | ≥ 70% |  | 
6 | Cc1cc(C(F)(F)F)nn1CC(=O)N1CCC(c2nc(C#CCc3ccccc3)cs2)CC1 [Example I-52, 2-[5-Methyl-3-(trifluoromethyl)-1H-pyrazol-1-yl]-1-{4-[4-(3-phenylprop-1-yn-1-yl)-1,3-thiazol-2-yl]piperidin-1-yl}ethanone] | 3.88 | ≥ 70% |  |  | 
7 | Cc1cc(C(F)(F)F)nn1CC(=O)N1CCC(c2nc(CCc3ccccc3)cs2)CC1 [Example I-53, 2-[5-Methyl-3-(trifluoromethyl)-1H-pyrazol-1-yl]-1-{4-[4-(2-phenylethyl)-1,3-thiazol-2-yl]piperidin-1-yl}ethanone] |  | ≥ 70% | ≥ 70% |  | chromatographic logP (log P (pH2.3); method [a]: HPLC, acidic range, pH 2.3, 0.1% aqueous phosphoric acid and acetonitrile): 3.79
8 | Cc1cc(C(F)(F)F)nn1CC(=O)N1CCC(c2nc(CCCC(C)c3ccccc3)cs2)CC1 (centres unmarked) [Example I-80, 2-[5-Methyl-3-(trifluoromethyl)-1H-pyrazol-1-yl]-1-{4-[4-(4-phenylpentyl)-1,3-thiazol-2-yl]piperidin-1-yl}ethanone] | 4.77 | ≥ 70% | ≥ 70% |  | 
9 | Cc1cc(C(F)(F)F)nn1CC(=O)N1CCC(c2nc(CCc3cccc4ccccc34)cs2)CC1 [Example I-81, 2-[5-Methyl-3-(trifluoromethyl)-1H-pyrazol-1-yl]-1-(4-{4-[2-(naphthalen-1-yl)ethyl]-1,3-thiazol-2-yl}piperidin-1-yl)ethanone] | 4.37 | ≥ 70% | ≥ 70% |  | 
10 | Cc1cc(C(F)(F)F)nn1CC(=S)N1CCC(c2nc(/C=C/c3ccccc3)cs2)CC1 [Example I-93, 2-[5-Methyl-3-(trifluoromethyl)-1H-pyrazol-1-yl]-1-(4-{4-[(E)-2-phenylethenyl]-1,3-thiazol-2-yl}piperidin-1-yl)ethanethione] | 4.65 | ≥ 70% | ≥ 70% |  | 
11 | Cc1cc(C(F)(F)F)nn1CC(=O)N1CCC(c2nc(C#C[Si](C)(C)C)cs2)CC1 [Example I-98, 2-[5-Methyl-3-(trifluoromethyl)-1H-pyrazol-1-yl]-1-(4-{4-[(trimethylsilyl)ethynyl]-1,3-thiazol-2-yl}piperidin-1-yl)ethanone] | 4.28 | ≥ 70% | ≥ 70% |  | 
12 | COc1ccc(C#Cc2csc(C3CCN(C(=O)Cn4nc(C(F)(F)F)cc4C)CC3)n2)cc1 [Example I-100, 1-(4-{4-[(4-Methoxyphenyl)ethynyl]-1,3-thiazol-2-yl}piperidin-1-yl)-2-[5-methyl-3-(trifluoromethyl)-1H-pyrazol-1-yl]ethanone] | 3.79 | ≥ 70% | ≥ 70% |  | 
13 | COc1ccccc1C#Cc1csc(C2CCN(C(=O)Cn3nc(C(F)(F)F)cc3C)CC2)n1 [Example I-103, 1-(4-{4-[(2-Methoxyphenyl)ethynyl]-1,3-thiazol-2-yl}piperidin-1-yl)-2-[5-methyl-3-(trifluoromethyl)-1H-pyrazol-1-yl]ethanone] | 3.67 | ≥ 70% | ≥ 70% |  | 
14 | O=C(Cc1cc(Cl)ccc1Cl)N1CCC(c2nc(C#Cc3ccccc3Br)cs2)CC1 [Example I-225] |  |  |  | 4.91^[b] | 
15 | O=C(Cc1cc(Cl)ccc1Cl)N1CCC(c2nc(C#Cc3c(F)cccc3F)cs2)CC1 [Example I-226] |  |  |  | 4.52^[b] | 
16 | Cc1cccnc1C#Cc1csc(C2CCN(C(=O)Cc3cc(Cl)ccc3Cl)CC2)n1 [Example I-228] |  |  |  | 3.35^[b] | log p (log P (pH2.3); [3]): 3.55^[c]
17 | Cc1noc(C)c1C#Cc1csc(C2CCN(C(=O)Cc3cc(Cl)ccc3Cl)CC2)n1 [Example I-229] |  |  |  | 3.86^[b] | 
18 | Cc1ccc(C)c(CC(=O)N2CCC(c3nc(C#Cc4ccccc4C)cs3)CC2)c1 [Example I-230] |  |  |  | 4.75^[b] | log p (log P (pH2.3); [3]): 4.78^[c];
19 | Cc1ccc(C)c(CC(=O)N2CCC(c3nc(C#Cc4ccccc4Br)cs3)CC2)c1 [Example I-231] |  |  |  | 4.77^[b] | log p (log P (pH2.3); [3]): 4.8^[c];
20 | Cc1ccc(C)c(CC(=O)N2CCC(c3nc(C#Cc4c(F)cccc4F)cs3)CC2)c1 [Example I-232] |  |  |  | 4.36^[b] | log p (log P (pH2.3); [3]): 4.39^[c];
21 | Cc1ccc(C)c(CC(=O)N2CCC(c3nc(C#Cc4c(C)noc4C)cs3)CC2)c1 [Example I-235] |  |  |  | 3.67^[b] | log p (log P (pH2.3); [3]): 3.71^[c];
22 | Cc1cccnc1/C=C\c1csc(C2CCN(C(=O)Cn3nc(C(F)(F)F)cc3C(F)(F)F)CC2)n1 [Example I-236] |  |  |  | 2.46^[b] | 
23 | Cc1ccc(C)c(CC(=O)N2CCC(c3nc(/C=C\c4ccccc4C)cs3)CC2)c1 [Example I-237] |  |  |  | 4.86^[b] | log p (log P (pH2.3); [3]): 4.95^[c];
24 | C#Cc1csc(C2CCN(C(=O)Cc3cc(C)ccc3C)CC2)n1 [Example I-238] |  |  |  | 2.93^[b]; | log p (log P (pH2.3); [3]): 2.95^[c]
25 | C#Cc1csc(C2CCN(C(=O)Cn3nc(C(F)F)cc3C(F)F)CC2)n1 [Example I-239] |  |  |  | 2.45^[b] | 
26 | Brc1sc(C2CCNCC2)nc1CCc1ccccc1 [II-3, 4-[5-Bromo-4-(2-phenylethyl)-1,3-thiazol-2-yl]piperidine] |  |  |  |  | log p (log P (pH2.3); pH 2.3, pH2.3, read-out: log P): 1.72
